# According to patent US8487137B2, “Photochemical crosslinkers for polymer coatings and substrate tie-layer” (Innovative Surface Technologies, LLC, priority 2005, dated 2013):
# What was measured:
# [1] = Solubility of crosslinker in common solvents and water; assay type: physicochemical; settings: chloroform, methylene chloride, acetone, ethyl acetate, isopropanol, etc.
# From the text: The peaks at d 7.78 ppm (m, 12H), 7.46 ppm (m, 9H), 6.98 ppm (m, 6H) were the typical signals from 4-substituted benzophenone. The peak at d 4.35 ppm (m, 6H) was assigned to the protons of methylene connected to phenoxy group. The peak at d 4.13 ppm (m, 9H) was a combination of 6 protons of 3 methylene groups connected to nitrogen atom and 3 protons from 3 methine groups. The peak at d 3.00 ppm (s, 3H) corresponded to hydroxyl groups.
# The peaks at 7.49˜7.79 ppm (m, 18H) were the typical signals from 4-substituted benzophenone. The peak at 4.66 ppm (s, 4H) was assigned to the protons of methylene connected to benzophenone group. The peak at 3.70 ppm (m, 16H) corresponded to ethylene groups.
# The peaks at 7.26˜7.79 ppm (m, 18H) were the typical signals from 4-substituted benzophenone. The peak at 4.64 ppm (s, 4H) was assigned to the protons of methylene connected to benzophenone group. The peak at 3.66 ppm (m, 24H) corresponded to ethylene groups.
# [2] = Static contact angle with water on coated PVC coverslips (goniometer); assay type: physicochemical
# Method: A coating solution was made up from the crude glycol linker product isolated in Example 3 (0.5 mg/ml glycol in isopropanol with 50 mg/ml polyvinylpyrrolidone (Kollidon K30, BASF, N.J.)). 100 μl of the coating solution was applied to PVC coverslips (Fisher Scientific, Pittsburgh, Pa.) and allowed to dry overnight. All pieces were illuminated for a set time in a uv crosslinker (UVP CL-1000, Upland, Calif., 254 nm light, 120,000 μJ/cm^2) from 0 to 10 minutes. Pieces were then rinsed for 30 minutes in deionized water with gentle agitation. The static contact angle with water was taken on a goniometer (MicroVu 400, Santa Ana, Calif.), three 3 μl drops of water were measured, three times apiece. Contact angles are shown below.
# A coating solution of purified triazine crosslinker isolated in Example 1 was made by adding 44 mg of crosslinker to 1 ml of acetone, diluted with 19 ml of isopropanol, then adding 1000 mg of poly(vinylpyrrolidone) (PVP) (Kollidon K30, BASF, N.J.). The resulting solution was thoroughly mixed on an orbital shaker for four hours. 18 samples were prepared by adding 100, 200, or 500 μl of coating solution onto PVC Coverslips (Fisher Scientific, Pittsburgh, Pa.) (n=6 for each condition), then air drying. The sample pieces were illuminated for five minutes in a uv chamber (UVP CL-1000, Upland, Calif., 254 nm light, 120,000 μJ/cm^2), then rinsed for four hours in deionized water with gentle agitation. 4 pieces of each variable were then stained with Congo red dye to determine the presence of PVP. For each coating condition, two of the four stained pieces were then rubbed with a wet glove to determine durability of the coating to simple rubbing. The remaining two unstained sample pieces for each coating condition were then assessed for static contact angle by threefold measurement of three 3 μl drops of water on a goniometer (MicroVu 400, Santa Ana, Calif.).
compound,measurement,setting,value
O=C(c1ccccc1)c1ccc(OCC(O)Cn2c(=O)n(CC(O)COc3ccc(C(=O)c4ccccc4)cc3)c(=O)n(CC(O)COc3ccc(C(=O)c4ccccc4)cc3)c2=O)cc1 (stereo not shown) [Example 1],solubility in most common solvents,[1],soluble in most common solvents
same,Contact angle (rinse only),"[2]; triazine crosslinker/PVP K30, Coating 100 ml",35.3 ± 3.4
same,Contact angle (rinse only),"[2]; triazine crosslinker/PVP K30, Coating 200 ml",38.7 ± 2.6
same,Contact angle (rinse only),"[2]; triazine crosslinker/PVP K30, Coating 500 ml",29.2 ± 2.2
